Drawing on the Deep4Chem optical property database, this text covers fluorescence lifetime for 35 compounds.

The data set is described as follows: solvent given as SMILES.
[1] abbreviates: in O=P(c1ccccc1)(c1ccccc1)c1ccccc1Oc1ccccc1P(=O)(c1ccccc1)c1ccccc1.

Consider `c1cc2c([nH]c3c4[nH]c5sccc5c4c4nsnc4c23)s1`, for which the fluorescence lifetime is 16.2 ns (in C1CCOC1); 16.5 ns (in CCOC(C)=O); 16 ns (in CN(C)C=O); 13.8 ns (in Cc1ccccc1); 13.2 ns (in ClCCl).

On to `COc1ccc(N(c2ccc(OC)cc2)c2cc3ccc4cc(B(c5c(C)cc(C)cc5C)c5c(C)cc(C)cc5C)cc5ccc(c2)c3c45)cc1`, for which the fluorescence lifetime reads like this: (in C1CCOC1) 6.1 ns; (in CC(C)=O) 3.2 ns; (in CCCCCC) 7.7 ns; (in Cc1ccccc1) 8.7 ns; (in ClC(Cl)Cl) 6.5 ns; (in ClCCl) 6.5 ns.

For the compound `O=C1OC(=O)c2ccc(N(c3ccccc3)c3ccc4ccccc4c3)c3cccc1c23`, the fluorescence lifetime was 1.09 ns (in C1CCOC1), 8.42 ns (in CCCCCC) and 8.55 ns (in c1ccccc1).

As for `CCc1ccc(-c2nc(-c3ccc(-n4c5ccccc5c5ccccc54)cc3)cc(-c3ccc(-n4c5ccccc5c5ccccc54)cc3)n2)cc1`, the fluorescence lifetime came to 3.72 ns (in C1CCOC1), 7.1 ns (in CN(C)C=O), 2.05 ns (in Cc1ccccc1) and 3.57 ns (in ClC(Cl)Cl).

As for `COc1cccc2c1-c1ccccc1C2=O`, the fluorescence lifetime worked out at 10.7 ns (in C1CCCCC1) and 1.8 ns (in CC#N).

`COC(=O)c1ccc(-c2nc3ccc(N(C)C)cc3s2)cc1` returned a fluorescence lifetime (in C1CCCCC1) of 2.4 ns.

Take `CN(C)c1ccc(-c2c(/C=C3/C=Cc4ccccc4N3Cc3ccccc3)c(=O)c2=O)cc1`: the fluorescence lifetime reads like this: (in C1CCCCC1) 2.19 ns; (in Cc1ccccc1) 2.13 ns; (in ClCCl) 0.13 ns.

Regarding `CN(C)c1ccc(/C=C/c2ccc(-c3nnc(-c4ccc(-c5cc6ccccc6s5)cc4)o3)cc2)cc1`, the fluorescence lifetime amounted to 0.52 ns (in Cc1ccccc1) and 0.53 ns (in ClC(Cl)Cl).

In the case of `CCOC(=O)C1=CNC=C(C(=O)OCC)C1c1ccccc1`, the fluorescence lifetime is, setting by setting: (in C1CCOC1) 7.83 ns; (in CO) 13.8 ns.

Take `CC(C)(C)c1ccc2c(c1)c1cc(C(C)(C)C)ccc1n2-c1cccc(-n2c3ccc(C(C)(C)C)cc3c3cc(C(C)(C)C)ccc32)c1C#N`: the fluorescence lifetime reads like this: (in Cc1ccccc1) 5 ns; under setting [1], 6.8 ns.

For the compound `Cc1ccccc1C1=C2C=c3c(oc4ccc(C(C)(C)C)cc34)=[N+]2[B-](F)(F)n2c1cc1c3cc(C(C)(C)C)ccc3oc12`, the fluorescence lifetime was 4.11 ns (in C1CCCCC1), 4.28 ns (in CCOC(C)=O) and 4.21 ns (in CO).

Under “in ClC(Cl)Cl”, `CCCCCCn1c2cc(/C=C(\C#N)c3ccccc3)ccc2c2ccc(/C=C(\C#N)c3ccccc3)cc21` had a fluorescence lifetime of 0.58 ns.

On to `Nc1ccc2ccc3cccc4ccc1c2c34`, for which the fluorescence lifetime (in C1CCCCC1) stood at 5.6 ns.

Under setting [1], `CC1(C)c2ccccc2N(c2ccc3c(c2)Oc2ccccc2S3(=O)=O)c2ccccc21` displayed a fluorescence lifetime of 29 ns.

In the case of `CC1=CC(C)=[N+]2C1=C(C)c1cccn1[B-]2(F)F`, the fluorescence lifetime reads like this: (in CCCCCC) 6.1 ns; (in CO) 6.31 ns; (in ClCCl) 5.93 ns.

Turning to `Cc1cc(-n2c3ccccc3c3ccccc32)c(-n2c3ccccc3c3ccccc32)cc1C#N`, the fluorescence lifetime stood at 14.6 ns (in c1cc(-c2cccc(-n3c4ccccc4c4ccccc43)c2)cc(-n2c3ccccc3c3ccccc32)c1), 26.4 ns (in c1ccc2c(c1)c1ccccc1n2-c1ccc2sc3ccc(-n4c5ccccc5c5ccccc54)cc3c2c1), 15.8 ns (in c1ccc2c(c1)c1ccccc1n2-c1ccc2sc3ccc(-n4c5ccccc5c5cccnc54)cc3c2c1) and 19.5 ns (in c1ccc2c(c1)c1cccnc1n2-c1ccc2sc3ccc(-n4c5ccccc5c5cccnc54)cc3c2c1).

For the compound `CN(C)c1ccc2nc(-c3ccc(C(=O)OC[C@H](NC(=O)OC(C)(C)C)C(=O)OCc4ccccc4)cc3)sc2c1`, the fluorescence lifetime (in C1CCCCC1) was determined as 2.4 ns.

On to `c1ccc(Nc2nc(Nc3ccccc3)nc(Nc3ccc4c5cccc6cccc(c7cccc3c74)c65)n2)cc1`, for which the fluorescence lifetime runs as follows: (in CCOC(C)=O) 3.6 ns; (in CS(C)=O) 4.3 ns.

As to `CSc1ccc2c(c1)N(CCCN1CCN(C)CN1C)c1ccccc1S2`, the fluorescence lifetime stood at 1.03 ns (in CC#N), 0.96 ns (in CO) and 1.47 ns (in O).

Regarding `COc1cc(-c2cc(-c3ccc(C)cc3)nc3c(C#N)c(N4CCCC4)nc(N)c23)cc(OC)c1OC`, the fluorescence lifetime was 10.7 ns (in CC#N); 10.4 ns (in CC(C)=O); 10.3 ns (in CC(C)O); 8.46 ns (in CO); 12.8 ns (in ClC(Cl)Cl); 12.6 ns (in ClCCl). Also, the fluorescence lifetime (in c1ccccc1) was found to be 12.5 ns.

`CCCCCCCCCCCCOc1cc2cc(N(C)C)ccc2cc1C#N` showed a fluorescence lifetime (in CS(C)=O) of 5.5 ns.

Take `c1ccc(C2=C3c4ccccc4C4=[N+]3[B-]3(Oc5ccccc54)Oc4ccccc4-c4c5ccccc5c2n43)cc1` (configuration not stated): the fluorescence lifetime (in ClCCl) turned out to be 7 ns.

In the case of `CC(C)(C)OC(=O)NC(Cc1ccc2oc(-c3ccccn3)nc2c1)C(=O)O` (configuration not stated), the fluorescence lifetime is 2.9 ns (in CC1CCCCC1), 1.92 ns (in CC#N) and 1.19 ns (in CO).

Compound `CC1(C)c2ccccc2N(c2cc[n+]3c(c2)-c2ccccc2O[B-]3(F)F)c2ccccc21` gave a fluorescence lifetime under setting [1] of 6.2 ns.

For the compound `CC1=CC(C)=[N+]2C1=C(c1ccc(I)cc1)c1c(C)cc(C)n1[B-]2(OCc1ccccc1)OCc1ccccc1`, for the setting “in ClC(Cl)Cl”, the fluorescence lifetime was 3.94 ns.

As for `Cc1ccc(-n2cccc2)cc1`, the fluorescence lifetime runs as follows: (in CC#N) 5.5 ns; (in CCCCCC) 4 ns.

Consider `Cc1ccc(-c2cc(-c3ccccc3Cl)c3c(N)nc(N4CCCC4)c(C#N)c3n2)cc1`, for which the fluorescence lifetime worked out at 11.3 ns (in CC#N); 11.1 ns (in CC(C)=O); 11.3 ns (in CC(C)O); 9.7 ns (in CO); 13.7 ns (in ClC(Cl)Cl); 13.7 ns (in ClCCl). Moreover, the fluorescence lifetime (in c1ccccc1) was 12.8 ns.

The compound `Cc1cc(C)c(B(c2c(C)cc(C)cc2C)c2cc3cc(N(C)C)c4ccccc4c3c3c2ccc2ccccc23)c(C)c1` returned a fluorescence lifetime (in C1CCCCC1) of 7 ns.

For the setting “in ClCCl”, `c1ccc(N(c2ccccc2)c2ccc(N(c3ccccc3)c3ccc4ccc5c(N(c6ccccc6)c6ccc(N(c7ccccc7)c7ccccc7)cc6)ccc6ccc3c4c65)cc2)cc1` registered a fluorescence lifetime of 2.7 ns.

`c1ccc(-c2nc(-c3ccccc3)nc(-c3cc(-n4c5ccccc5c5ccccc54)c(-n4c5ccccc5c5ncccc54)c(-n4c5ccccc5c5ccccc54)c3)n2)cc1`: the fluorescence lifetime (in O=P(c1ccccc1)(c1ccccc1)c1ccc2oc3ccc(P(=O)(c4ccccc4)c4ccccc4)cc3c2c1) was 20.4 ns.

The compound `c1ccc(N2N=C(c3cccc4ccccc34)CC2c2ccc3ccc4cccc5ccc2c3c45)cc1` (configuration not stated) returned a fluorescence lifetime (in ClCCl) of 2.01 ns.

`c1ccc(-c2nc(-c3ccc(-c4nc(-c5ccccc5)c(-c5ccccc5)o4)cc3)oc2-c2ccccc2)cc1` showed a fluorescence lifetime (in C1COCCO1) of 1.03 ns.

Regarding `COc1ccc(/C=C/C2=CC(/C=C/c3ccc(OC)cc3)=[O+][B-](OC(C)=O)(OC(C)=O)O2)cc1`, the fluorescence lifetime runs as follows: (in C1CCOC1) 2.38 ns; (in CC#N) 2.09 ns; (in CC(C)=O) 2.29 ns; (in CS(C)=O) 2.26 ns; (in Cc1ccccc1) 2.45 ns; (in ClC(Cl)Cl) 2.52 ns. The same compound registered a fluorescence lifetime (in ClCCl) of 2.63 ns.

The compound `CC(C)[Si](C#Cc1c2ccccc2c(C#C[Si](C(C)C)(C(C)C)C(C)C)c2nc3cc4c(cc3nc12)C1c2ccccc2C4c2ccccc21)(C(C)C)C(C)C` gave a fluorescence lifetime (in CCCCCC) of 13.3 ns and a fluorescence lifetime (in ClCCl) of 18.3 ns.

Compound `c1ccc(-c2nc(-c3ccccc3)nc(-c3ccc(-n4c5ccccc5c5cc6c(cc54)C4(c5ccccc5-c5ccccc54)c4ccccc4-6)cc3)n2)cc1` gave a fluorescence lifetime under setting [1] of 3.9 ns.
